The nature of series [1]: Inhibition of recombinant full length HCV genotype 1b NS3/4A protease by FRET assay. More on the design: species or system Hepatitis C virus subtype 1b.
The next series has as its system Hepatitis C virus. In words: Antiviral activity against HCV genotype 1b infected in human HuH7 cells after 3 days by luciferase assay. The series is classed as functional, organism-based, Hepacivirus hominis. The following applies: Huh-7, 72 h.
The nature of series [2]: Cytotoxicity against human HuH7 cells by colorimetric proliferation assay. The series is classed as cell-based, Huh-7.
Series [3] can be described thus: Intrinsic clearance in rat liver microsomes. Format: ADME. The following applies: read-out: CLH.
A short description of series [4]: Half life in rat liver microsomes. Format: ADME.
Series [5] in a line: Intrinsic clearance in rat cryopreserved hepatocytes assessed per 10^6 cells. Format: ADME, cell-based, Hepatocyte. The following applies: read-out: CLH.
Series [6] in a line: Intrinsic clearance in human liver microsomes. Format: ADME. The following applies: read-out: CLH.
Series [7] in a line: Intrinsic clearance in monkey liver microsomes. The series is classed as ADME, Macaca mulatta. The following applies: rhesus monkey, read-out: CLH.
The nature of series [8]: Cmax in Sprague-Dawley rat plasma at 2 mg/kg, iv administered as single dose measured after 8 hrs. The series is classed as ADME, organism-based. More on the design: dose 2 mg/kg, route intravenous.
A short description of series [9]: Tmax in Sprague-Dawley rat at 2 mg/kg, iv administered as single dose. Format: ADME, organism-based. The following applies: in vivo.
Series [10] can be described thus: AUCt in Sprague-Dawley rat at 2 mg/kg, iv administered as single dose. Format: ADME, organism-based. The following applies: in vivo.
Series [11] in a line: Half life in Sprague-Dawley rat at 2 mg/kg, iv administered as single dose. Format: ADME, organism-based. The following applies: in vivo.
A short description of series [12]: Clearance in Sprague-Dawley rat at 2 mg/kg, iv administered as single dose. As to conditions: in vivo. Format: ADME, organism-based.
Series [13] can be described thus: Cmax in Sprague-Dawley rat plasma at 10 mg/kg, po administered as single dose measured after 24 hrs. Format: ADME, organism-based. Further details: dose 10 mg/kg, route oral.
Series [14] can be described thus: Tmax in Sprague-Dawley rat at 10 mg/kg, po administered as single dose. The series is classed as ADME, organism-based. As to conditions: in vivo.
Series [15] can be described thus: AUCt in Sprague-Dawley rat at 10 mg/kg, po administered as single dose. The series is classed as ADME, organism-based. As to conditions: in vivo.
Series [16] can be described thus: AUC (infinity) in Sprague-Dawley rat at 10 mg/kg, po administered as single dose. Format: ADME, organism-based. Further details: dose 10 mg/kg, time infinity, route oral. As to conditions: in vivo.
Series [17] in a line: AUC (infinity) in Sprague-Dawley rat at 2 mg/kg, iv administered as single dose. As to conditions: in vivo. Format: ADME, organism-based. Further details: dose 2 mg/kg, route intravenous, time infinity.
The nature of series [18]: Half life in Sprague-Dawley rat at 10 mg/kg, po administered as single dose. Format: ADME, organism-based. As to conditions: in vivo.
A short description of series [19]: Oral bioavailability in Sprague-Dawley rat at 10 mg/kg administered as single dose. The series is classed as ADME, organism-based. The following applies: in vivo.

The results in this text go back to ChEMBL document CHEMBL3632591, “Discovery and structural diversity of the hepatitis C virus NS3/4A serine protease inhibitor series leading to clinical candidate IDX320” (Bioorg Med Chem Lett, 2015).

For the compound `COc1ccc2c(O[C@H]3C[C@H]4C(=O)N(C)CCCC/C=C/[C@@H]5C[C@@]5(C(=O)NS(=O)(=O)C5(C)CC5)NC(=O)N4C3)cc(-c3nc(C(F)(F)F)cs3)nc2c1C`, the 50% inhibitory concentration (IC50) in series [1] came out at 0.5 nM. In the series on Hepatitis C virus, this compound yielded a half-maximal effective concentration (EC50) of 13 nM. The same compound showed a CC50 in series [2] of 75000 nM. Also, the values for the microsomal CLint in [3], in series [6] and in [7] were 11.4 µL/min/mg, 24 µL/min/mg and 46.7 µL/min/mg, respectively. Further, the half-life in series [4] was 2.03 h; in [11] it was 1.5 h; in series [18], 5.2 h. In series [5], the hepatocyte CLint turned out to be 17.4 µL/min/1e6 cells. Moreover, the results for the Cmax in series [8] and in series [13] were 2670 ng/mL and 406 ng/mL, respectively. The Tmax in series [9] turned out to be 4.8 min; in series [14] it was 1 h. The exposure AUC(0-t) in series [10] was 2540 ng·h/mL; in [15], 2230 ng·h/mL. In addition, the clearance in series [12] was 13.2 mL/min/kg. Moreover, the values for the area under the curve AUC(0-inf) in series [16] and in series [17] were 2380 ng·h/mL and 2570 ng·h/mL, respectively. In series [19], the bioavailability turned out to be 18%.
